Data taken from patent publication US20140370067A1, “Method and applicator for the perioperative disinfection of medical instruments to be inserted through non-natural openings” (priority 2012, published 2014).

Test: Effectiveness and irritation of lower octenidine concentration in gel formulation (statement in description)
Conditions: concentration of 0.05% octenidine, compared with common 0.1%

**Q.** Which effectiveness does the source give for `CCCCCCCCN=c1ccn(CCCCCCCCCCn2ccc(=NCCCCCCCC)cc2)cc1` [octenidine, 1,1′-(1.1 O-decandiyl) to [4-(octylamino)pyridinium]-dichloride] here?
**A.** sufficiently good effectiveness

**Q.** What about the irritation of the same compound?
**A.** lower irritation
